# Read-outs that look alike come from different tables or passages of the source.
# Assay: SKA-41 concentrations in plasma and brain by LC/MS after i.p. injection
# Type: in vivo
# Settings: rat; for concentration at 1 h: male, intraperitoneal, 10 mg/kg i.p., n=3 rats
# Description: Twelve week-old male Sprague-Dawley rats were purchased from Charles River Laboratories (Wilmington, Mass.) and housed in microisolator cages with rodent chow and autoclaved water ad libitum. All experiments were in accordance with National Institutes of Health guidelines and approved by the University of California, Davis Institutional Animal Care and Use Committee.
# SKA-41 is dissolved in Miglyol 812 neutral oil (caprylic/capric triglyceride; Trade name Neobee M5, Spectrum Chemicals, Gardena, Calif., USA) at 1 mg/mL and injected intraperitoneally at 10 mg/kg. After 1 hour, rats (n=3) are subjected to cardiac puncture under deep isoflurane anesthesia and then sacrificed before removing the brain. Blood is collected into EDTA blood sample collection tubes. Plasma is separated by centrifugation and samples stored at −80° C. pending analysis.
# Commercial SPE cartridges (Hypersep C18, 100 mg, 1 mL) are purchased from Thermo Scientific (Houston, Tex., U.S.A). Before the extraction, cartridges are conditioned with acetonitrile, 2×1 mL, followed by water 2×1 mL. After loading the SPE cartridges with plasma samples, they are washed with 2×1 mL of 20% acetonitrile in water followed by elution with a 2×1 mL of acetonitrile. Elute fractions are collected and evaporated to dryness. The residues are reconstituted to solution using appropriate volume of acetonitrile and used for LC-MS analysis.
# Brain samples are treated as following: 4.0 mL of acetonitrile is added to 200 mg of tissue sample and homogenized thoroughly using a T25 digital ULTRA-TURRAX® homogenizer (IKA® Works Inc., NC, USA). The homogenized samples are centrifuged for 10 min at 4000 rpm, the supernatant is separated and evaporated under a constant air flow as described above. The residues are reconstituted using appropriate volume of acetonitrile. The reconstituted material is loaded onto the preconditioned SPE cartridges it is then eluted with 2 mL of acetonitrile. Load and elute fractions are collected and evaporated to dryness. The residues are reconstituted to solution with 200 μL acetonitrile and used for LC-MS analysis. […]
# Using Heated electrospray ionization source (HESI II) in positive ion mode, capillary temperature 300° C., vaporizer temperature: 250° C., spray voltage 3000 V, sheath gas pressure (N2) 30 units, auxiliary gas pressure (N2) 5 units, ion sweep gas pressure (N2) 1 unit, SKA-41 was analyzed by the selective reaction monitoring (SRM) transition of its molecular ion peak 261.0 (M+1)^+ into 175.0 and 133.0 m/z. An 8-point calibration curve spanning a concentration range from 50 nM to 10 μM range was developed for quantification.
smiles,measurement,setting,value
"Nc1nc(-c2ccc(OC(F)(F)F)cc2)cs1 [SKA-41, 4-(4-(Trifluoromethoxy)phenyl)thiazol-2-amine]",Kp at 1 h,"Sprague-Dawley, brain/plasma, ip, 10 mg/kg i.p. in Miglyol 812, 1 h, 3 male rats, read-out: brain/plasma ratio",~7
same,concentration at 1 h,"Sprague-Dawley, brain, read-out: brain concentration, average",12.6 µM
same,concentration at 1 h,"Sprague-Dawley, plasma, read-out: plasma concentration, average",1.77 µM
same,brain penetration (brain/plasma ratio) relative to riluzole,in vivo,seven times higher
